Tests used:
E-selectin = assay: Inhibition of E-selectin IgG chimera binding to sLex on microtiter wells; conditions: FIG. 6; E-selectin 50 ng/ml; sennoside B from 2 mM, serial 1/2 dilutions; sLex 25 pm/well
Procedure: (§1) The capacity of the multivalent anthraquinone derivative, Sennoside B, to inhibit selectin binding to sLex was tested essentially as described by Foxall, C., et al J. Cell Biol., vol. 117, pages 895-902 (1992) using selectin IgG chimeras.
(§2) The following assay procedure was used. sLex at 25 pm/well was evaporated onto microtiter wells in MeOH and H2 O overnight. The plates were washed with H2 O and blocked with 5% BSA in PBS with 1 mM Ca for 1 hour. L-selectin was diluted to 35 ng/ml in 1% BSA PBS with 1 mM Ca and 1:1500 biotinylated goat F(ab') anti-human IgG Fc (CalTag, corp.) and streptavidin-alkaline phosphatase. E-selectin at 50 ng/ml and P-selectin at 750 ng/ml were similarly diluted with 1:1000 dilutions of biotinylated goat F(ab') anti-human IgG Fc and streptavidin-alkaline phosphatase. These were allowed to complex for 15 minutes at 37° C.
(§3) Part of each selectin solution was made 2 mM with sennoside B (obtained from Pfaltz and Bauer, Inc., Waterbury, Conn.) The most concentrated solutions were diluted with the selectin solution to yield 3 solutions each 1/2 as concentrated as the previous. The solutions with selectin and inhibitor were incubated for 45 minutes at 37° C. […]
(§4) Binding is expressed as "% of No Addition Control." That is, in some wells, no inhibitor was present, and the binding in these wells represents the maximum (100%) binding.

L-selectin = assay: Inhibition of L-selectin IgG chimera binding to sLex on microtiter wells; conditions: FIG. 7; L-selectin 35 ng/ml; sennoside B from 2 mM, serial 1/2 dilutions; sLex 25 pm/well
Procedure: as §1, §2, §3, §4

P-selectin = assay: Inhibition of P-selectin IgG chimera binding to sLex on microtiter wells; conditions: FIG. 8; P-selectin 750 ng/ml; sennoside B from 2 mM, serial 1/2 dilutions; sLex 25 pm/well
Procedure: as §1, §2, §3, §4

## O=C(O)c1cc(O)c2c(c1)[C@@H]([C@H]1c3cc(C(=O)O)cc(O)c3C(=O)c3c(O[C@@H]4O[C@H](CO)[C@@H](O)[C@H](O)[C@H]4O)cccc31)c1cccc(O[C@@H]3O[C@H](CO)[C@@H](O)[C@H](O)[C@H]3O)c1C2=O [Sennoside B]
E-selectin
  E-selectin binding to sLex (expressed as % of No Addition Control): inhibited
L-selectin
  L-selectin binding to sLex (expressed as % of No Addition Control): inhibited
P-selectin
  P-selectin binding to sLex (expressed as % of No Addition Control): most inhibited

Source: US5412123A, “Anthraquinone and anthracene derivatives as inhibitors of the cell-adhesion molecules of the immune system” (Glycomed Incorporated, priority 1993, dated 1995)
